Measurements: patent US10287311B2, “Modified fluorinated nucleoside analogues” (priority 2003, dated 2019)
Where two headings read alike, the source gives them in different places.

Assays:
BVDV = assay: (BVDV) yield reduction assay; assay type: cell-based, bovine viral diarrhea virus; settings: for EC90: Bovine viral diarrhea virus isolates and strains
Method: Madin-Darby Bovine Kidney (MDBK) cells were grown in Dulbecco's modified eagle medium supplemented with 10% horse serum and 100 μg/ml penicillin-streptomycin. Cells were seeded in a 96-well plate at 5×10^3 cells/well and incubated for 72h at 37° C. in a humidified 5% CO2 atmosphere. Cells were infected with either cytopathic (NADL strain) or noncytopathic (SD-1 strain) BVDV at a virus dilution of 10-2 and incubated for 45 min. Cell monolayers were washed three times with medium. Fresh medium-containing test compounds in dose response concentrations or ribavirin, as a positive control, were added to cultures and medium containing no drug was added to the no-drug controls. After 72h incubation, supernatant was collected and viral RNA was extracted using the QIAmp Viral RNA Mini Kit (Qiagen, CA). Viral load was determined by Q-RT-PCR using primers specific for either NADL or SD-1 (1).

RSV = assay: Antiviral activity, RSV; assay type: cell-based; settings: human respiratory syncytial virus
HBV = assay: Antiviral activity, HBV; assay type: cell-based; settings: Hepatitis B virus; HBV
[1] = Cytotoxicity assay (MTS), all cell lines tested; assay type: cell-based; settings: human, bovine, African green monkey, Clone A, Huh7, HepG2, MDBK, PBM, CEM, Vero and MRC-5 cells; summary in text over all cell lines
Method: (§1) 50 μl of 2× drug dilutions were added per well in a 96 well plate. Final concentrations of drug ranged from 1 to 100 μM. A “no drug” (media only) control was used to determine the minimum absorbance values and a “cells+media only” control was used for maximum absorbance value. A solvent control was also used. Cells were then added (PBM: 5×10^4 cells/well; CEM: 2.5×10^3 cells/well; Vero, HepG2, Huh-7, and Clone A: 5×10^3 cells/well) and incubated at 37° C. in a humidified 5% CO2 atmosphere for 3-5 days (PBM: 5 days; CEM: 3 days, all others: 4 days). After incubation, 20 μl of MTS dye was added from Cell Titer Aqueous One Solution Cell Proliferation Assay to each well and the plate was re-incubated for 2-4 hours. The absorbance (490 nm) was then read on an ELISA plate reader using the media only/no cell wells as blanks. Percent inhibition was found and used to calculate the CC50.
In contrast is the relative toxicity of 2′-C-methyladenosine.

[2] = Cytotoxicity assay (MTS), CloneA; assay type: cell-based; settings: human, Clone A cells
Method: as §1

[3] = Cytotoxicity assay (MTS), Huh7; assay type: cell-based; settings: human, Huh7 cells
Method: as §1

[4] = Cytotoxicity assay (MTS), HepG2; assay type: cell-based; settings: human, HepG2 cells
Method: as §1

[5] = Cytotoxicity assay (MTS), MDBK; assay type: cell-based; settings: bovine, MDBK cells
HepG2 cells = assay: Mitochondria toxicity assay; assay type: cell-based; settings: 7 days
Method: Fifty microliters of 2× drug dilutions were added per well in a 96 well plate. […] Ribosomal DNA levels were used to determine specific toxicity to mitochondria or generally cytotoxicity. HepG2 cells (5,000 cells/well at 50 μl) were added to the plate. The plate was incubated at 37° C. in a humidified 5% CO2 atmosphere for 7 days. After incubation, the supernatant was removed and stored for lactic acid quantification, and total DNA was extracted from cells as described in the RNeasy 96 handbook (February 1999), pages 22-23. No DNA digestions were performed, therefore total RNA and DNA were extracted. The extracted DNA was amplified and the change in mitochondrial DNA and ribosomal DNA for each sample was determined. The fold difference in mitochondrial DNA normalized for ribosomal DNA relative to control was calculated. Lactic acid quantification was performed by the D-Lactic Acid/L-Lactic acid test kit (Boehringer Mannheim/R-Biopharm/Roche). The total amount of lactic acid produced for each sample was found as well as the fold change in lactic acid production (% of lactic acid/% of rDNA) as described in the manufacturers instructions.

[6] = tested on: Human bone marrow cells, BFU-E; assay: Bone marrow toxicity assay, BFU-E; assay type: cell-based
Method: (§2) The culture assays for CFU-GM and BFU-E are performed using a bilayer soft agar or methylcellulose method. Drugs are diluted in tissue culture medium and filtered. After 14 to 18 days at 37° C. in a humidified atmosphere of 5% CO2 in air, colonies of greater than 50 cells are counted using an inverted microscope. The results are presented as the percent inhibition of colony formation in the presence of drug compared to solvent control cultures.

[7] = tested on: Human bone marrow cells, CFU-GM; assay: Bone marrow toxicity assay, CFU-GM; assay type: cell-based
Method: as §2

replicon HCV RNA = assay: HCV replicon assay (clone not specified); settings: Hepatitis C virus, read-out: EC90 values, range for the replicon clones, range over replicon clones of Table 1
[8] = tested on: serum amino transferase levels; settings: Gary L. Davis, 2000; cited from earlier work
HCV replicon system = settings: Stuyver et al. 2003; cited from earlier work

Q: What does the source list for C[C@@]1(O)[C@H](O)[C@@H](CO)O[C@H]1n1ccc(N)nc1=O [2′-C-methylcytidine]?
A: activity on HCV surrogate model BVDV (in words) (BVDV): greater activity; EC90 (BVDV; BVDVcp): 2 µM; EC90 (BVDV; BVDVncp): 0.5 µM; EC90 (RSV): > 100 µM; EC90 (HBV): > 10 µM; CC50 [1]: 75 to 100 µM; CC50 at 4 days [2]: > 100 µM; CC50 at 4 days [3]: > 100 µM; CC50 at 4 days [4]: > 100 µM; CC50 at 4 days [5]: > 100 µM; Lactic Acid Increase (HepG2 cells): No effect ≥ 33 μM; IC50 (HepG2 cells; Homo sapiens, 168 h, read-out: mtDNA Synthesis (IC50)): > 25 µM; IC50 ([6]; Bone marrow cell): 20.1 µM; IC50 ([7]; CFU-GM): 13.2 µM; EC90 (replicon HCV RNA): 6.6 to 37.4 µM

Q: For Cc1cn([C@H]2C[C@H](N=[N+]=[N-])[C@@H](CO)O2)c(=O)[nH]c1=O [AZT], which IC50 [6] is on record?
A: 0.08 µM

Q: What about the IC50 [7] of the same compound?
A: 0.95 µM

Q: For NC(=O)c1ncn([C@@H]2O[C@H](CO)[C@@H](O)[C@H]2O)n1 [Ribavirin, 1-β-D-ribofuranosyl-1-1,2,4-triazole-3-carboxamide], which “patients with serum amino transferase levels reduced to normal” value [8] is on record?
A: 40%

Q: What about the “specific anti-HCV activity in the HCV replicon system” value (HCV replicon system) of the same compound?
A: does not have specific anti-HCV activity
